Where a SMILES comes first, the peptide text is derived from it. The star is where a group is joined. Octanoyl(6-Me) = CCC(C)CCCCC(=O)*
Legend:
RBCs = details: 2.5 % RBCs, 500 µg peptide/ml; ref Zweytick et al. [2011b]; cited from earlier work
From the text: The correlation of activity against bacteria with activity on bacterial model systems for lactoferricin derived peptides and their N-acylated derivatives was shown recently (Zweytick et al. [2011b]).

[1] = Differential scanning calorimetry of DPPS liposomes; details: for Bilayer perturbation—DSC, cancer mimic: first symbol of cancer mimic/healthy mimic; on Bilayer perturbation—DSC, cancer mimic: key: +, peptide effect; ++, increasing peptide effect; +++: etc; ++++: etc; −, no peptide effect
Procedure: (§1) Appropriate amounts of respective phospholipid stock solution were dried under a stream of nitrogen and stored in vacuum overnight to completely remove organic solvents. The dry lipid film was then dispersed in phosphate buffered saline (PBS, 20 mM NaPi, 130 mM NaCl, pH 7.4) and hydrated at a temperature well above the gel to fluid phase transition of the respective phospholipid under intermittent vigorous vortex-mixing. The lipid concentration was 0.1 weight % for calorimetric and 2 % for leakage experiments. Hydration was carried out in presence or absence of peptides at a lipid-to-peptide ratio of 25:1 and 12.5:1 using a protocol described for POPS (Jiménez-Monreal et al. [1998]), DPPS (Jing et al. [2005]) and DPPC (Sevcsik et al. [2007]). Briefly hydration of POPS films occurred at 30 °C, DPPS at 65 °C and DPPC at 50 °C, for 2 h with vortexing for 1 min every 15 min. The hydration of the lipid mixtures DPPS/DPPC 1:5 and DPPS/DPPC 1:1 were performed at 65 °C for 2 h by vortexing accompanied by one freeze–thaw cycle every 15 min. The fully hydrated samples were stored for at least 1 h at room temperature until measurement.
(§2) DSC experiments were performed with a differential scanning calorimeter (VP-DSC) from MicroCal, Inc. (Northhampton, MA, USA). Heating scans were performed at a scan rate of 30 °C/h (pre-scan thermostating 30 min) with a final temperature of approximately 10 °C above the main transition temperature (Tm) and cooling scans at the same scan rate (pre-scan thermostating 1 min) with a final temperature approximately 20 °C below Tm. The heating/cooling cycle was performed three times. Enthalpies were calculated by integration of the peak areas after normalization to phospholipid concentration and baseline adjustment using the MicroCal Origin software (VP-DSC version). The phase transition temperature was defined as the temperature at the peak maximum (McElhaney [1982]).

[2] = test system: differentiated non-tumorigenic melanocytes; details: for melanocytes killed (PI-uptake): 20 µM peptide, 8 h, media containing serum
Procedure: Human melanocytes used as healthy control cells were isolated from foreskin. Foreskin was cut into small pieces and incubated with 0.3 % trypsin (PAA) overnight at 4 °C and for 1 h at 37 °C. Epidermis was separated. Cells were mechanically removed from the cell layer and centrifuged at 300 g for 3 min. The pellet was re-suspended and cells further cultured in melanocyte growth medium (Biomedica, Vienna, Austria, PromoCell GmbH, Heidelberg, Germany). All cells were kept in a 5 % CO2 atmosphere at 37 °C. At 90 % confluence cell-culture flasks were passaged after detachment with accutase (PAA, Pasching Austria). All cell cultures were periodically checked for mycoplasma.
Cells were collected, re-suspended in media and diluted to a concentration of 10^6 cells/ml. Aliquots of 10^5 cells/100 µl media were incubated with different amount of peptides (0–80 µM) for 8 h at 37 °C and 5 % CO2. Propidium iodide (PI) (2 µl/10^5cells of 50 µg/ml, Invitrogen, Camarillo, CA, USA) was added and cells were again incubated for 5 min at room temperature in the dark. Excitation and emission wavelengths were 536 and 617 nm, respectively. Cytotoxicity was calculated from the percentage of PI positive cells in media alone (P0) and in the presence of peptide (PX). […] Triton-X-100 was used to determine 100 % of PI positive cells (P100).1 %PI-uptake=100∗(PX-P0)/(P100-P0)

[3] = Tryptophan fluorescence and acrylamide quenching with DPPC membranes; details: second symbol of cancer mimic/healthy mimic; further: key: +, peptide effect; ++, increasing peptide effect; +++: etc; ++++: etc; −, no peptide effect
Procedure: as §1
(§3) Fluorescence spectroscopy experiments were performed using a SPEX Fluoro Max-3 spectrofluorimeter (Jobin–Yvon, Longjumeaum, France) and spectra were analyzed with Datamax software.
(§4) Tryptophan fluorescence spectra were obtained at room temperature using an excitation wavelength of 282 nm and a slit width of 5 nm for excitation and emission monochromators. Quenching of Tryptophan was carried out in the presence and absence of phospholipid liposomes (lipid-to-peptide ratio 25:1) using 0.1, 0.4 and 0.7 M acrylamide. The data were analyzed according to the Stern–Volmer equation (Eq. 2):2 F0F0FF=1+KSVQ where F0 and F represent the fluorescence emission intensities in the absence and presence of the quencher molecule (Q) and KSV is the Stern–Volmer quenching constant, which is a quantitative measure for the accessibility of tryptophan to acrylamide (Tao and Cho [1979]).

[4] = Differential scanning calorimetry of DPPC liposomes; details: for Bilayer perturbation—DSC, healthy mimic: second symbol of cancer mimic/healthy mimic; on Bilayer perturbation—DSC, healthy mimic: key: +, peptide effect; ++, increasing peptide effect; +++: etc; ++++: etc; −, no peptide effect
Procedure: as §1, §2

[5] = ANTS/DPX leakage from POPC LUVs; details: for Permeability—ANTS/DPX leakage, healthy mimic: second symbol of cancer mimic/healthy mimic; for ANTS/DPX release from POPC liposomes: 2–8 µM peptide; on Permeability—ANTS/DPX leakage, healthy mimic: key: +, peptide effect; ++, increasing peptide effect; +++: etc; ++++: etc; −, no peptide effect
Procedure: [The procedure below names another target; the source lists this target under the same test.] as §1
(§5) Leakage of aqueous contents from liposomes was determined using the 8-aminonaphthalene-1,3,6-trisulfonic acid/p-xylene-bis-pyridinium bromide (ANTS/DPX) assay (Ellens et al. [1985]). Lipid films (preparation see above) were hydrated with 12.5 mM ANTS, 45 mM DPX, 68 mM NaCl, 10 mM HEPES (4-(2-hydroxyethyl)-1-piperazineethanesulfonic acid) at pH 7.4 following a standard procedure. Subsequently, the dispersions were extruded 20 times through a polycarbonate filter (Millipore-Isopore™) of 0.1 µm pore size to obtain LUVs. Unilamellarity and size were tested by X-ray and dynamic light scattering, respectively. The ANTS/DPX encapsulating vesicles were separated from free ANTS/DPX by exclusion chromatography using a column filled with Sephadex™ G-75 (Amesham Biosciences) fine gel swollen in an isosmotic buffer (10 mM HEPES, 140 mM NaCl, pH 7.4). The void volume fractions were collected and the phospholipid concentration was determined by phosphate analysis (Bartlett [1959]; Broekhuyse [2005]). The fluorescence measurements were performed in 2 mL of the isosmotic buffer in a quartz cuvette at 37 °C. Aliquots of LUVs were diluted with the isosmotic buffer to a final lipid concentration of 50 µM. Fluorescence spectra were obtained at 37 °C using an excitation wavelength of 360 nm, an emission wavelength of 530 nm and a slit width of 5 nm for both excitation and emission monochromators. Fluorescence emission was recorded as a function of time before and after the addition of incremental amounts of peptide. The fluorescence increase due to leakage and subsequent dilution of quenched dye was measured after addition of peptides. Peptides were added to final concentrations of 2, 4 and 8 µM, corresponding to peptide-to-lipid molar ratios of 1:25, 1:12.5 and 1:6.25, respectively. Data are presented in terms of fluorescence intensity (IF and were calculated using Eq. 3:3 IF=F-F0/Fmax-F0 F is the measured fluorescence, F0 the initial fluorescence without peptide and Fmax the fluorescence corresponding to 100 % leakage gained by addition of 1 % Triton X-100.

[6] = test system: melanoma cell line SBcl-2; experiment: Propidium iodide-uptake toxicity assay, melanoma SBcl-2; assay type: cell-based, human; parameters: Toxicity—PI uptake, cancer cells / Cancer specificity: key: +, peptide effect; ++, increasing peptide effect; +++: etc; ++++: etc; −, no peptide effect; details: for Toxicity—PI uptake, cancer cells: first symbol of cancer cells/healthy cells
From the text: (§6) Epidermis was separated. […] All cell cultures were periodically checked for mycoplasma.

[7] = Tryptophan fluorescence and acrylamide quenching with DPPS membranes; parameters: key: +, peptide effect; ++, increasing peptide effect; +++: etc; ++++: etc; −, no peptide effect; details: first symbol of cancer mimic/healthy mimic (PS)
Procedure: as §1, §3, §4

[8] = ANTS/DPX leakage from POPS LUVs; details: for ANTS/DPX release from POPS vesicles: 50 µM lipid LUVs; for specificity/selectivity for cancer over non-cancer mimic, ANTS/DPX leakage: POPS versus POPC LUVs; for Permeability—ANTS/DPX leakage, cancer mimic: first symbol of cancer mimic/healthy mimic
Procedure: as §1, §5

[9] = Differential scanning calorimetry of DPPC/DPPS 1:1 liposomes; details: lipid to peptide 25:1
Procedure: as §1, §2

[10] = test system: melanoma metastases WM164; experiment: Propidium iodide-uptake toxicity assay, melanoma metastases WM164; assay type: cell-based, human; details: 20 µM peptide, 8 h
From the text: as §6

[11] = Differential scanning calorimetry of DPPC/DPPS 5:1 liposomes; details: lipid to peptide 25:1, split transition given as peak/peak
Procedure: as §1, §2

E. coli = details: ref Zweytick et al. [2011b]; cited from earlier work
From the text: It has been reported by Yang et al. (Yang et al. [2004]) that a prerequisite for antitumor but not for antibacterial peptides derived of bovine lactoferrin is a minimum net charge close to +7 and to consist of at least 14 amino acids.

[12] = 25:1 lipid-to-peptide molar ratio
[13] = DPPS liposomes, lipid to peptide 25:1, split transition given as peak/peak
[14] = DPPC liposomes in PBS pH 7.4, lipid to peptide 25:1, scan rate 30 °C/h
[15] = DPPC liposomes, lipid to peptide 25:1
[16] = DPPC liposomes, lipid to peptide 25:1, transition half-width
[17] = 8 µM peptide (peptide-to-lipid 1:6.25), 10 mM HEPES 140 mM NaCl pH 7.4, 37 °C, fluorescence
[18] = 50 µM lipid LUVs, pH 7.4, 37 °C
[19] = DPPC liposomes, lipid to peptide 12.5:1

| Compound | reduction of the main transition enthalpy of DPPS [1, 12] [%] | T1/2 [1, 13] [°C] | Bilayer perturbation—DSC, cancer mimic [1] | Toxicity—PI uptake, healthy cells [2] | melanocytes killed (PI-uptake) [2] | Bilayer affinity—quenching, healthy mimic [3] | ΔH pre [4, 14] [kcal/mol] | Tpre [4, 15] [°C] | ΔH m [4, 15] [kcal/mol] | T1/2 [4, 16] [°C] | Bilayer perturbation—DSC, healthy mimic [4] | Permeability—ANTS/DPX leakage, healthy mimic [5] | specificity for cancer cells, PI-uptake ratio melanoma SBcl-2 versus melanocytes ([6]; 20 µM peptide, 8 h) | Toxicity—PI uptake, cancer cells [6] | Bilayer affinity—quenching, cancer mimic [7] | ANTS/DPX release from POPS vesicles [8, 17] | Permeability—ANTS/DPX leakage, cancer mimic [8] | T1/2 [9] [°C] | Tm [9] [°C] | ΔH m [9] [kcal/mol] | other results |
| --- | --- | --- | --- | --- | --- | --- | --- | --- | --- | --- | --- | --- | --- | --- | --- | --- | --- | --- | --- | --- | --- |
| CCC(C)CCCCC(=O)N1CCC[C@H]1C(=O)N[C@@H](Cc1ccccc1)C(=O)N[C@@H](Cc1c[nH]c2ccccc12)C(=O)N[C@@H](CCCNC(=N)N)C(=O)N[C@H](C(=O)N[C@@H](CCCNC(=N)N)C(=O)N[C@H](C(=O)N[C@@H](CCCNC(=N)N)C(=O)N[C@@H](CCCNC(=N)N)C(N)=O)[C@@H](C)CC)[C@@H](C)CC (stereo partly drawn) [6-MO-LF11-322] ({Octanoyl(6-Me)}-PFWRIRIRR-NH2) | 35 | 2.24 | ++ | + | ~ 15% | + | 0.4 | 34.6 | 9.1 | 0.26 | + | + | threefold to fourfold | ++ | ++ | ~70% | ++ | 2.45 | 43.3 | 5.4 | lysis of RBCs (RBCs): 20%; leakage of POPC vesicles ([5]; peptide-to-lipid molar ratio of 1:6.25 (8 µM), 50 µM lipid LUVs, pH 7.4, 37 °C): about 20%; IC50 ([6]; PI-uptake, cancer cells, 8 h, media containing serum): ~20 µM; specificity for cancer cells after 1 h ([6]; after 1 h, data not shown): sevenfold; ANTS/DPX release from POPS vesicles ([8]; 4 µM peptide (peptide-to-lipid 1:12.5), pH 7.4, 37 °C): ~ 30%; specificity/selectivity for cancer over non-cancer mimic, ANTS/DPX leakage [8]: threefold |
| PFWRIRIRRPRRIRIRWFP-NH2 [R-DIM-P-LF11-322, retro repeat derivative: LF11-322-proline-LF11-322 retro] | 70 | 1.53 | +++ | − | < 1% | − | 1.5 | 34.5 | 9.1 | 0.25 | − | − | higher than 1,000 fold | +++ | ++ | 90–100% | +++ | 1.08 | 42.4 | 7.9 | decrease of the transition temperature of DPPS [1, 12]: ~5 °C; Tm [1, 13]: 47.9 °C; ΔH m [1, 13]: 3.1 kcal/mol; specificity, PI-uptake ratio melanoma metastases WM164 versus melanocytes [10]: > 500 fold; T1/2 [11]: 0.83 °C; Tm [11]: 42.2 °C; ΔH m [11]: 8.2 kcal/mol; Tm [4, 15]: 41.3 °C; ANTS/DPX release from POPC liposomes [5, 18]: < 5%; PI positive SBcl-2 cells ([6]; 20 µM peptide, 8 h, media containing serum): more than 80%; Cancer specificity ([6]; cancer cells/healthy cells): ++++; specificity/selectivity for cancer over non-cancer mimic, ANTS/DPX leakage [8]: up to 20 fold |
| PFWRIRIRR-NH2 [LF11-322] | 10 |  | + |  |  | − | 1.1 | 34.8 | 9.0 | 0.17 | − | − |  |  | ++ | ~ 20% | + | 2.42 | 44.2 | 8.3 | T1/2 ([1]; DPPS liposomes, lipid to peptide 12.5:1): 2.48 °C; specificity, PI-uptake ratio melanoma metastases WM164 versus melanocytes [10]: twofold; T1/2 [11]: 0.80 °C; Tm [11]: 42.4 °C; ΔH m [11]: 10.1 kcal/mol; minimal inhibitory concentration for E. coli (E. coli): 8 to 16 µg/mL; T1/2 [4, 19]: 0.26 °C; Tm [4, 19]: 41.3 °C; Tpre [4, 19]: 34.5 °C; ΔH m [4, 19]: 9.2 kcal/mol; ΔH pre [4, 19]: 1.0 kcal/mol; Tm [4, 15]: 41.3 °C; ANTS/DPX release from POPC liposomes [5, 18]: < 5%; killing (PI-uptake) of SBcl-2 ([6]; 80 µM peptide, 8 h, media containing serum, 37 °C): < 10% |

— paper PMC4155172, “Killing of melanoma cells and their metastases by human lactoferricin derivatives requires interaction with the cancer marker phosphatidylserine” (Biometals, 2014)
